This is an account of results in patent US20230416684A1, “COMPOSITION FOR PREVENTING OR TREATING MUSCLE DISEASES, CONTAINING STEM CELLS IN WHICH GRO-ALPHA IS EXPRESSED OR GRO-ALPHA” (SAMSUNG LIFE PUBLIC WELFARE FOUNDATION, priority 2020, published 2023).

Assay [1] concerns MDX mouse (a mouse model for duchenne muscular dystrophy). The experiment in a line: Activity of creatine kinase in serum of MDX mouse injected with WJ-MSC or GRO-α. It is filed as in vivo. As to conditions: intravenous and intraperitoneal injection, serum after one week, FIG. 6A. Here is the method: (§1) Based on the results of Examples 1 to 3, the efficacy of GRO-α on prevention or treatment of muscle diseases was confirmed in an MDX mouse (a mouse model for duchenne muscular dystrophy). In detail, the MDX mouse was intravenously and intraperitoneally injected with each of WJ-MSC and GRO-α. After one week, blood was collected from the heart of the mouse, centrifuged at 15,500×g for 10 minutes to separate serum, and then, activity of creatine kinase was measured.

A further assay relates to phospho-RIP3. The experiment in a line: Western blot of phospho-RIP3 in muscles of MDX mouse injected with WJ-MSCs or GRO-α. As to conditions: muscles of MDX mouse after injection; protein level, FIG. 6C. It is filed as in vivo. As for the experimental part:
as §1
(§2) The expression levels of necrosis markers in muscles of the […] injected with WJ-MSCs and GRO-α were confirmed in Example 4-1. In detail, the muscle tissue of the mouse was ground with liquid nitrogen into a minimum size in a mortar, added to an E-tube, and then subjected to sonication with lysis buffer (urea+RIPA=1:1). Afterwards, the supernatant was collected, and proteins in the tissue were quantified according to the Bradford assay (Bio-rad, USA). Then, proteins were detected by using western blot.
(Immunoblotting shows a protein as a band on a membrane.)

The subject of assay [2] is C2C12 cells. The experiment in a line: Cell morphology and cell viability of lovastatin death-induced C2C12 cells treated with GSK′872 and GRO-α individually or in combination. It is filed as cell-based, mouse. As to conditions: GRO-α 200 μg/mL; for cell proliferation (cell morphology) / cell viability: GSK 3 μm pretreatment 3 hours; for cell proliferation (cell morphology): cultured for 48, FIG. 5A; for cell viability: cultured for 48, FIG. 5B. As for the experimental part: Inhibitory effects of GSK′827 and GRO-α, known as […] that block the RIP-3 pathway, on cell death of skeletal muscle myoblasts were compared. In detail, skeletal muscle myoblasts of the cell death-induced mouse by lovastatin treatment were pretreated with 3 μm of GSK′827 for 3 hours, followed by washing with 1×PBS. The medium was replaced by a serum-free medium, and GRO-α was diluted therein to a final concentration of […]/mL. Then, the cells were treated with GRO-α and GSK′827 individually or in combination, followed by culturing for 48 to observe the cell morphology.

Assay [3] relates to C2C12 cells. The experiment in a line: Cell morphology and cell viability of lovastatin death-induced C2C12 cells treated with GRO-α at different concentrations. Type of assay: cell-based, mouse.
A further assay deals with phospho-MLKL. The experiment in a line: Western blot of phospho-MLKL in muscles of MDX mouse injected with WJ-MSCs or GRO-α. It is filed as in vivo. As to conditions: muscles of MDX mouse after injection; protein level, FIG. 6B. Here is the method: as §1, §2
The subject of assay [4] is necrosis markers in C2C12 cells. The experiment in a line: Western blotting of necrosis markers in lovastatin death-induced C2C12 cells treated with GRO-α at different concentrations. It is filed as cell-based, mouse. As to conditions: FIGS. 4C and 4D. As for the experimental part: To confirm the inhibitory effects of the PL-MSCs and WJ-MSCs on the cell death, apoptosis markers and necrosis markers expressed in the mouse skeletal muscle myoblasts were confirmed by western blotting. In detail, after collecting the cells and breaking the cell membrane by using a buffer in which RIPA buffer and urea buffer were mixed at a ratio of 1:1, centrifugation was performed thereon, and the supernatant thus obtained was collected and subjected to the Bradford assay (Bio-rad, USA) to quantify proteins in the cells. After loading 20 μg of the proteins of from each sample on a gel, electrophoresis was performed on the gel by using SDS. After transferring the proteins to a polyvinylidene fluoride (PVDF) membrane, a 1× tris-buffered saline with 0.1% Tween 20 (TBST) solution to which 5% skimmed milk (BD Difco, USA) was added, followed by culturing at room temperature for 1 hour. Afterwards, the proteins were treated with PARP (1:1000, Cell signaling, USA), cleaved caspase-3 (1:1000, Cell signaling, USA), phospho-RIP3 (1:1000, Cell signaling, USA), and phospho-MLKL (1:1000, Cell signaling, USA) and beta actin (1:5000; Santa Cruz, USA) antibodies, followed by culturing overnight at 4° C. Next, the proteins were treated with secondary antibodies (anti-Rabbbit IgG-HRP; ABCIon, Korea) at room temperature for 1 hour, and blots were developed by using ECL (Bio-rad, USA). […]

Assay [5] shares this test system. Kind of assay: Western blotting of necrosis markers in lovastatin death-induced C2C12 cells treated with GSK′872 and GRO-α individually or in combination. Type of assay: cell-based, mouse. As to conditions: FIGS. 5C and 5D.

As for growth-regulated oncogene-alpha (GRO-α), the “activity of creatine kinase, decrease” value in assay [1] is given as 75%. Also, the “expression of phospho-RIP3, decrease” value in the assay on phospho-RIP3 worked out at 70%. The “cell viability compared to the group treated with GSK′872” value in the assay with C2C12 cells [2] (FIG. 5B) was “high”. Further, in the assay with C2C12 cells [2], the “cell proliferation (cell morphology)” value is given as “proliferated” and the cell viability entry was “significant increase”. Further, in the assay with C2C12 cells [3] (group treated with 100 ng/mL of GRO-α, FIG. 4B), the “cell viability, among concentration groups” value is “the highest”. In the assay on C2C12 cells [3] (lovastatin death-induced C2C12 cells treated with GRO-α, FIG. 4A), the cell proliferation rate entry is listed as “increased”. Moreover, the cell viability entry in the assay on C2C12 cells [3] (lovastatin death-induced C2C12 cells, after 24 hours of treatment with GRO-α, FIG. 4B) is “significantly increased”. In the assay with phospho-MLKL, the “expression of phospho-MLKL, decrease” value was 76%. Also, the “expression of necrosis markers” value in assay [4] is reported as “inhibited the expression of the necrosis markers in a concentration-dependent manner”. In addition, the “inhibitory effect on the expression of necrosis markers compared to GSK′872” value in assay [5] is reported as “excellent inhibitory effect”. Moreover, the “expression of markers involved in necrosis compared to the control group” value in assay [5] (GRO-α 200 μg/mL) is recorded as “reduced the expression of all markers involved in necrosis”.
As for `CC(C)S(=O)(=O)c1ccc2nccc(Nc3ccc4scnc4c3)c2c1` [GSK′872, reference compound], in the assay on C2C12 cells [2], the “cell proliferation (cell morphology)” value is “proliferated” and the cell viability result is recorded as “significant increase”.
